Measured values as given in US20250115571A1, “OXOPIPERAZINE DERIVATIVES” (Inthera Bioscience AG, priority 2017, published 2025).

What was measured:
[1] = tested on: HPV-positive head-and-neck squamous cell carcinoma model #HN11303; assay: Patient-derived xenograft mouse model for head-and-neck squamous cell carcinoma (HN11303); format: in vivo; conditions: for mice tumor-free at the end of the observation period: HN11303 PDX, variable dosages (TABLE 23), all sixteen mice of the two groups; for mean TV: subcutaneous HPV-positive HNSCC model, female NMRI nu/nu mice
Procedure: Female NMRI nu/nu mice were injected with cells derived from a human head-and-neck cancer (model #HN11303, an HPV-positive head-and-neck squamous cell carcinoma, EPO-GmbH, Berlin, Germany). The cells were inoculated subcutaneously into the left flank of 40 mice. Thirteen days later tumors reached a mean volume of approximately 107 mm^3, and mice were randomly assigned to five treatment groups of each eight mice (TABLE 23). Body weights were measured twice weekly. Tumor burden was assessed by caliper measurement twice weekly. Dosing breaks were applied when tolerability issues arose (body weight loss>10). The study was terminated five weeks post first dosing. The experiment was performed in the EPO animal testing facility (Experimental Pharmacology and Oncology GmbH, 13125 Berlin-Buch, Germany).

[2] = tested on: HPV-positive head-and-neck squamous cell carcinoma model #HN10309; assay: Patient-derived xenograft mouse model for head-and-neck squamous cell carcinoma (HN10309); format: in vivo; conditions: p.o. BID, 30 mg/kg, female NMRI nu/nu mice
Procedure: Female NMRI nu/nu mice were injected with cells derived from a human head-and-neck cancer (model #HN10309, an HPV-positive head-and-neck squamous cell carcinoma, EPO-GmbH, Berlin, Germany). The cells were inoculated subcutaneously into the left flank of 24 mice. Thirty-three days later tumors reached a mean volume of approximately 116 mm^3, and mice were randomly assigned to three treatment groups of each eight mice (TABLE 21). Body weights were measured twice weekly. Tumor burden was assessed by caliper measurement twice weekly. Dosing breaks were applied when tolerability issues arose (body weight loss>[…]). The study was terminated four weeks post first dosing. The experiment was performed in the EPO animal testing facility (Experimental Pharmacology and Oncology GmbH, 13125 Berlin-Buch, Germany).

[3] = tested on: SiHa human HPV16-positive cervical cancer cells; assay: Cell-derived xenograft mouse model for cervical cancer (SiHa CDX); format: in vivo; conditions: p.o.; for Tumor Size day 37: SiHa CDX, female BALB/c nude mice, Mean ± SEM; for T/C: day 37, tumor-to-control ratio (volume/volume)
Procedure: (§1) Female BALB/c nude mice (7-9 weeks of age) were injected with SiHa human HPV16-positive (Human Papillomavirus type 16) cervical cancer cells. The cells were inoculated subcutaneously into the left flank of 48 mice. When tumors reached a mean volume of approximately 111 mm^3, mice were randomly assigned to eight treatment groups of each six mice (TABLE 18). Body weights were measured three times weekly prior to the initiation of dosing and daily thereafter. Tumor burden was assessed by caliper measurement twice weekly. Dosing breaks were applied when tolerability issues arose (body weight loss>10%). The study was terminated four weeks post first dosing. The experiment was performed in the Crown Bioscience Ltd. (Beijing) testing facility (Ground Floor, Light Muller Building, Changping Sector of Zhongguancun Scientific Park, No. 21 Huoju Road, Changping District, Beijing, CHIN).

[4] = tested on: patient-derived castration-resistant prostate tumor cells (model #PR6511); assay: Castration resistant prostate cancer patient-derived xenograft (CRPC PDX); format: in vivo, mouse
Procedure: NSG NOD.Cg-PrkdcscidIj2rgtm1Wjl/SzJ mice (6-8 weeks of age) were injected with patient-derived castration-resistant prostate tumor cells (model #PR6511, Crown Bioscience UK Ltd Hillcrest, Osgathorpe Leicestershire, UK). The cells were inoculated subcutaneously into the left flank of 40 male NSG mice. When tumors reached a mean volume of approximately 100 mm^3 (i.e. 100 mm^3+/−54 mm^3, FIG. 3), mice were randomly assigned to five treatment groups of each eight mice (TABLE 9). Body weights were measured three times weekly prior to the initiation of dosing and daily thereafter. Tumor burden was assessed by caliper measurement three times weekly. Dosing breaks were applied when tolerability issues arose (body weight loss>10). Upon completion of the scheduled dosing phase at day 57, tumor outgrowth was monitored for groups 3, 4 and […] up to study day 77. Groups 1 and 2 were terminated on study day 57. Results of the experiment are shown in TABLES 10 and 11; and FIGS. 3 and 4. The experiment was performed in the Crown Bioscience Ltd. testing facility (Crown Bioscience UK Ltd Hillcrest, Dodgeford Lane, Osgathorpe Leicestershire LE12 9TE, UK).

[5] = tested on: MKN45 human gastric adenocarcinoma cells; assay: Cell-derived xenograft mouse model for gastric cancer (MKN45 CDX); format: in vivo; conditions: 12 mg/kg, QW, i.v.
Procedure: as §1, with “(8-9” for “(7-9”, “MKN45” for “SiHa”, “gastric adenocarcinoma” for “HPV16-positive (Human Papillomavirus type 16) cervical cancer”, “103” for “111”, “16).” for “18).”, “CHN).” for “CHIN).”

[6] = 1 mg/kg, BID, listed as Compound 248
[7] = p.o. QD, 30 mg/kg, groups of eight mice

Row | Structure (SMILES) | mice tumor-free at the end of the observation period [1] | mean TV ([1]; day 13) | mean TV ([1]; day 15) | mean TV ([1]; day 18) | mean TV ([1]; day 21) | mean TV ([1]; day 25) | mean TV ([1]; day 29) | mean TV ([1]; day 33) | mean TV ([1]; day 36) | mean TV ([2]; Day 33) | mean TV ([2]; Day 35) | mean TV ([2]; Day 38) | mean TV ([2]; Day 41) | mean TV ([2]; Day 45) | mean TV ([2]; Day 49) | mean TV ([2]; Day 53) | mean TV ([2]; Day 56) | Tumor Size day 37 ([3]; 3 mg/kg, BID) | T/C ([3]; 3 mg/kg, BID) | also measured
1 | CC(C)C[C@@H]1NCCN([C@@H](CC(C)C)C(=O)N2CCC3(C[C@@H]2C)OCC(CN2CCCC2)CO3)C1=O (stereo partly drawn) [Compound 248, (S)-1-[(S)-1-({(S)-8-Methyl-3-[(1-pyrrolidinyl)methyl]-1,5-dioxa-9-aza-9-spiro[5.5]un-decyl}carbonyl)-3-methylbutyl]-3-isobutyl-2-piperazinone] | tumor-free | 0.1064 cm^3 | 0.0958 cm^3 | 0.0916 cm^3 | 0.0511 cm^3 | 0.0499 cm^3 | 0.0288 cm^3 | 0.0068 cm^3 | 0.0041 cm^3 | 0.1159 cm^3 | 0.1248 cm^3 | 0.1389 cm^3 | 0.1093 cm^3 | 0.1794 cm^3 | 0.2398 cm^3 | 0.2964 cm^3 | 0.2569 cm^3 | 178 ± 27 mm^3 | 19% | Tumor Size day 37 [3, 6]: 586 ± 82 mm^3; T/C [3, 6]: 62.6%; Tumor Size day 37 ([3]; 6 mg/kg, QD): 238 ± 37 mm^3; T/C ([3]; 6 mg/kg, QD): 25.4%
2 | CC(C)C[C@H]1C(=O)N([C@@H](CC(C)C)C(=O)N2CCC3(C[C@@H]2C)OCC(CN2CCCC2)CO3)CCN1C (stereo partly drawn) [Compound 273, (S)-1-[(S)-1-({(S)-8-Methyl-3-[(1-pyrrolidinyl)methyl]-1,5-dioxa-9-aza-9-spiro[5.5]un-decyl}carbonyl)-3-methylbutyl]-3-isobutyl-4-methyl-2-piperazinone] | tumor-free | 0.1063 cm^3 | 0.1073 cm^3 | 0.0948 cm^3 | 0.0875 cm^3 | 0.0451 cm^3 | 0.0194 cm^3 | 0.0056 cm^3 | 0.0031 cm^3 |  |  |  |  |  |  |  |  | 942.0 ± 114.9 mm^3 | 79.3% | 
3 | CC(C)C[C@@H]1NCCN([C@@H](CC(C)C)C(=O)N2CCC(CCN3CCC4(CC3)CC4)CC2)C1=O [Compound 282, (S)-1-[(S)-1-[(4-{2-(6-Aza-6-spiro[2.5]octyl)eth-yl}-1-piperidyl)carbonyl]-3-methylbutyl]-3-isobutyl-2-piperazinone] |  | 0.1073 cm^3 | 0.1061 cm^3 | 0.1040 cm^3 | 0.0971 cm^3 | 0.1111 cm^3 | 0.1030 cm^3 | 0.1273 cm^3 | 0.1185 cm^3 | 0.1161 cm^3 | 0.1308 cm^3 | 0.1751 cm^3 | 0.2086 cm^3 | 0.3560 cm^3 | 0.4920 cm^3 | 0.6364 cm^3 | 0.6558 cm^3 |  |  | 
4 | CC(C)C[C@@H]1NCCN([C@@H](CC(C)C)C(=O)N2CCC3(C[C@@H]2C)OCC(CN2CCC2)CO3)C1=O (stereo partly drawn) [Compound 318, (S)-1-[(S)-1-({(S)-3-[(1-Azetidinyl)methyl]-8-methyl-1,5-dioxa-9-aza-9-spiro[5.5]undecyl}car-bonyl)-3-methylbutyl]-3-isobutyl-2-piperazinone] |  |  |  |  |  |  |  |  |  |  |  |  |  |  |  |  |  | 351 ± 68 mm^3 | 37.5% | 
5 | CNC(=O)c1ccc(N2C(=S)N(c3ccc(C#N)c(C(F)(F)F)c3)C(=O)C2(C)C)cc1F [Enzalutamide, enzalutamide, reference compound] |  |  |  |  |  |  |  |  |  |  |  |  |  |  |  |  |  |  |  | TWO-WAY ANOVA p (tumor size at the end of the study) vs. Vehicle ([4]; 30 mg/kg p.o. QD, n.s. = not significant): n.s.; CR (complete regression) = number of mice [4, 7]: 0; PR (partial regression) = number of mice [4, 7]: 0; TFS (Tumor Free Survival) = number of complete regressions recorded up to Group Day End [4, 7]: 0
6 | CC(=O)O[C@H]1C(=O)[C@@]2(C)[C@H]([C@H](OC(=O)c3ccccc3)[C@]3(O)C[C@H](OC(=O)[C@H](O)[C@@H](NC(=O)c4ccccc4)c4ccccc4)C(C)=C1C3(C)C)[C@]1(OC(C)=O)CO[C@@H]1C[C@@H]2O [Paclitaxel, paclitaxel, reference compound] |  |  |  |  |  |  |  |  |  |  |  |  |  |  |  |  |  |  |  | Tumor Size day 29 ([5]; MKN45 CDX, female BALB/c nude mice, Mean ± SEM): 554.9 ± 52.8 mm^3; T/C ([5]; day 29, tumor-to-control ratio (volume/volume)): 46.6%
